Assay results published in ChEMBL document CHEMBL1201862, “PubChem BioAssay data set” (2004).
The source made the active and inactive calls.

Experiments:
[1] = target: Voltage-dependent T-type calcium channel subunit alpha-1H (Homo sapiens, UniProt O95180); format: functional;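 note: channel activity triggered by adding a high calcium stimulation buffer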
Coagulation factor XII = target: T1, Coagulation factor XII (Homo sapiens, UniProt P00748); format: functional;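 note: activated factor XIIa alpha cleaving a fluorogenic AMC peptide substrate; inhibitor potency from loss of enzyme activity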
T1 sequence (P00748 whole entry): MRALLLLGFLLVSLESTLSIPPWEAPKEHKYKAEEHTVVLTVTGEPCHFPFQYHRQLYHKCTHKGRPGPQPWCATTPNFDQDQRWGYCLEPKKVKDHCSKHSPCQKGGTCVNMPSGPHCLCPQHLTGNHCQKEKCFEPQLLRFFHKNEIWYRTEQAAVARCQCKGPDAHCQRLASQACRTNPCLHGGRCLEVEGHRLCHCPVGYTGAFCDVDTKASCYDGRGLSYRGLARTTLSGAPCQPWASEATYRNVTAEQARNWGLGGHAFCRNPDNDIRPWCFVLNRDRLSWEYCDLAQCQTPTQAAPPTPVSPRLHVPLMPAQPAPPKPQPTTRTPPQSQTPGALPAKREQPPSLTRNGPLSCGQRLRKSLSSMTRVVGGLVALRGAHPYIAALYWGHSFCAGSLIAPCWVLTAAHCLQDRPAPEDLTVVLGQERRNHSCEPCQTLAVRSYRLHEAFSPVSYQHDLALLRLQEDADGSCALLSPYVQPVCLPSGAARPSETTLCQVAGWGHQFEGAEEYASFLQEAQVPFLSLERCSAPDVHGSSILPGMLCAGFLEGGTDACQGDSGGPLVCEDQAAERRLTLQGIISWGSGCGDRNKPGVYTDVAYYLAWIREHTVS

HeLa = test: HeLa cell cytotoxicity, dose response, cytotoxicity control for MITF activator project, CellTiter-Glo luminescence, cherry-pick samples (AID 540259); format: functional, cell-based; conditions: Homo sapiens
Cytochrome P450 2D6 = Cytochrome P450 2D6 (Homo sapiens, UniProt P10635);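 note: CYP2D6 member of a cytochrome P450 panel assay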
[2] = target: 26S proteasome non-ATPase regulatory subunit 14 (Homo sapiens, UniProt O00487); test: inhibition of proteasome subunit RPN11 – biochemical, fluorescence polarization, uHTS hits, confirmation (AID 602368); format: functional
26S proteasome non-ATPase regulatory subunit 14, sequence (O00487 whole entry): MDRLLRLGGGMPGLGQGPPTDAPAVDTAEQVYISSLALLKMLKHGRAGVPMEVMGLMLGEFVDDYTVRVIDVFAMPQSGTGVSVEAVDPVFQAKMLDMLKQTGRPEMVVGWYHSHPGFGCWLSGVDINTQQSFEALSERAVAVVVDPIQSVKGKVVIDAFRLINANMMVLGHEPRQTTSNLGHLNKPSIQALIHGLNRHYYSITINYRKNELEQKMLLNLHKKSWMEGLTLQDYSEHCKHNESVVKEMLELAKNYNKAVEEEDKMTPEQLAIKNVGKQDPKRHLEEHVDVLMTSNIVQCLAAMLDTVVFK

Prothrombin = Prothrombin (Bos taurus, UniProt P00735); test: thrombin inhibition, dose response, biochemical, fluorescence polarization, uHTS hits (AID 602369); format: functional
[3] = target: 72 kDa type IV collagenase (Homo sapiens, UniProt P08253); test: Dose Response validation of uHTS RPN11 inhibitor hits using a MMP-2 Fluorescence assay.; format: functional
72 kDa type IV collagenase, sequence (P08253 whole entry): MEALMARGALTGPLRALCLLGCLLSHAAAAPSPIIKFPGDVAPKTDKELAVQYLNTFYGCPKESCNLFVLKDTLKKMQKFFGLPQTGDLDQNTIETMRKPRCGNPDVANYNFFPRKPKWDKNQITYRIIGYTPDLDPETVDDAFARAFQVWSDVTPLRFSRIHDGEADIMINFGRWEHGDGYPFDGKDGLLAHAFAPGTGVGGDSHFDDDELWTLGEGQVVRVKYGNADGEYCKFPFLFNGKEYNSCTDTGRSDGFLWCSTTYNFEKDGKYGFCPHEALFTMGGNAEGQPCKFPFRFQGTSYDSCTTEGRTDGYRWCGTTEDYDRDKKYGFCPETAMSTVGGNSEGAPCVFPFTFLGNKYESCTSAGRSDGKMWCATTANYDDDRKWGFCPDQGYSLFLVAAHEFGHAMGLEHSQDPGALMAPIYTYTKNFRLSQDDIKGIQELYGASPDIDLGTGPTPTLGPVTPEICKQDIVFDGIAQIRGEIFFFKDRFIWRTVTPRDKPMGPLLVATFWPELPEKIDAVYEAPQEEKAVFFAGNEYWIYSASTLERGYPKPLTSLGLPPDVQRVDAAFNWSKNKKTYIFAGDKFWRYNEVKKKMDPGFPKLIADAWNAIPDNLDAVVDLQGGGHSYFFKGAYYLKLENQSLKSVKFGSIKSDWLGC

[4] = target: Adenosylmethionine-8-amino-7-oxononanoate aminotransferase (Mycobacterium tuberculosis, UniProt P9WQ81); test: Mycobacterium tuberculosis BioA enzyme inhibitor Measured in Biochemical System Using Plate Reader - 2163-02_Inhibitor_Dose_CherryPick_Activity.; format: functional, Mycobacterium tuberculosis UT205
Adenosylmethionine-8-amino-7-oxononanoate aminotransferase, sequence (P9WQ81 whole entry): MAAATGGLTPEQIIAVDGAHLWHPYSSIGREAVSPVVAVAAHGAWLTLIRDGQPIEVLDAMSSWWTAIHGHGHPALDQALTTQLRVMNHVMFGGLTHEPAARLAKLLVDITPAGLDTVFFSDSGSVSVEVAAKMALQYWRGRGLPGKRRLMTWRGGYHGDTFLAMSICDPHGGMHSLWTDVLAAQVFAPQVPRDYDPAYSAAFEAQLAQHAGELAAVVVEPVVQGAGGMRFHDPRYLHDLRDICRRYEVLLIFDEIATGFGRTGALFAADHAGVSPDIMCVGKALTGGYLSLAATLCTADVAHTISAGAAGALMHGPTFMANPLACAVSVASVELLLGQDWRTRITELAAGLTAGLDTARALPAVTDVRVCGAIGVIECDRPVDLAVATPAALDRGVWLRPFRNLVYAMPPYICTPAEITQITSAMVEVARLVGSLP

[5] = target: T2, Alkaline phosphatase, tissue-nonspecific isozyme (Homo sapiens, UniProt P05186); test: human TNAP enzyme inhibitors, SAR follow-up, biochemical, luminescent, dose response (AID 1056)
T2 sequence (P05186 whole entry): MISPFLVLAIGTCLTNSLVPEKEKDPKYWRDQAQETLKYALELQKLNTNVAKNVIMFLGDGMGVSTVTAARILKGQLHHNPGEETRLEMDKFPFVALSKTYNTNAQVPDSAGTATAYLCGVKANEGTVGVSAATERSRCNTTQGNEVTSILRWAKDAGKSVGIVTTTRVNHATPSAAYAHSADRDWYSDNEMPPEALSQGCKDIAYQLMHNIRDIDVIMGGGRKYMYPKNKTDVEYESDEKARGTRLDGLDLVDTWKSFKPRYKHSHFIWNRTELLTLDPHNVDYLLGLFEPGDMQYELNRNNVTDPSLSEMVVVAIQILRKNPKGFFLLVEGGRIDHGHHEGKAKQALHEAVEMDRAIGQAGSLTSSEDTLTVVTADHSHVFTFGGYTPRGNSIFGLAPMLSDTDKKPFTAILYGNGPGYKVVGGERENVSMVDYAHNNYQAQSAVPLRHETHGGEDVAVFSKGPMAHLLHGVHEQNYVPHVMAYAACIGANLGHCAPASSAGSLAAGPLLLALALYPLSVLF

[6] = target: Alkaline phosphatase, placental type (Homo sapiens, UniProt P05187); test: PLAP enzyme inhibitors, confirmation, biochemical, luminescence (AID 1512); format: functional
Alkaline phosphatase, placental type, sequence (P05187 whole entry): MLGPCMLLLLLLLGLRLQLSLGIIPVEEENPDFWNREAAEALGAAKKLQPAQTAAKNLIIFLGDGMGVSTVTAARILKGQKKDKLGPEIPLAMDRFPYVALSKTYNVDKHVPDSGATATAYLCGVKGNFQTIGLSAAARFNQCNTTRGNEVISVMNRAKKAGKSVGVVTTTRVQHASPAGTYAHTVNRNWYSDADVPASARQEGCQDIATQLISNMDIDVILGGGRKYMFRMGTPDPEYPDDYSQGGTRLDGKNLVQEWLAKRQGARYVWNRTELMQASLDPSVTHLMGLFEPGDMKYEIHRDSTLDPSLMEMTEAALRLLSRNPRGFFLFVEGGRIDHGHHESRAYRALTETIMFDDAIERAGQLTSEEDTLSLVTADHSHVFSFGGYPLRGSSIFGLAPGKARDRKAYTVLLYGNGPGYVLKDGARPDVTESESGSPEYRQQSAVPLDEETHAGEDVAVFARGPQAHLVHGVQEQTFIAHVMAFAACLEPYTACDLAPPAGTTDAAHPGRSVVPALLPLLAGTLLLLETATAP

[7] = target: Glyceraldehyde-3-phosphate dehydrogenase (Homo sapiens, UniProt P04406)
Glyceraldehyde-3-phosphate dehydrogenase, sequence (P04406 whole entry): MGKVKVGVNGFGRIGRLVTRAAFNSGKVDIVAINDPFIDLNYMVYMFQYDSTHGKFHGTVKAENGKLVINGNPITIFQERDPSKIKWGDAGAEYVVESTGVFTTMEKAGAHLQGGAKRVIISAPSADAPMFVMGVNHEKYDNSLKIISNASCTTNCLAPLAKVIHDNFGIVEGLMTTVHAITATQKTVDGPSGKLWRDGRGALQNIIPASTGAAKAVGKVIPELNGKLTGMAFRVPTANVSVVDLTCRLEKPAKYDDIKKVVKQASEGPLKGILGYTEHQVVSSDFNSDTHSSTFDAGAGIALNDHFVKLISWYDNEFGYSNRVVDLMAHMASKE

H9c2 = test: cells; format: functional, cell-based; conditions: Rattus norvegicus, H9c2, Myocardium;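 note: confirmatory concentration-response retest of ultra-high-throughput screening hits for modulation of myocardial damage; cell death induced by hydrogen peroxide oxidative stress; compound pretreatment for 60 min then peroxide exposure for 2 h; potency is for protecting the cells against peroxide damage rather than for killing them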
[8] = target: T3, Nuclear receptor subfamily 0 group B member 1 (Homo sapiens, UniProt P51843); test: Luminescence-based cell-based high throughput dose response assay for inhibitors of the orphan nuclear receptor subfamily 0, group B, member 1 (DAX1; NR0B1). [Related pubchem assays (depositor defined):AID504766, AID504790]; format: functional
T3 sequence (P51843 whole entry): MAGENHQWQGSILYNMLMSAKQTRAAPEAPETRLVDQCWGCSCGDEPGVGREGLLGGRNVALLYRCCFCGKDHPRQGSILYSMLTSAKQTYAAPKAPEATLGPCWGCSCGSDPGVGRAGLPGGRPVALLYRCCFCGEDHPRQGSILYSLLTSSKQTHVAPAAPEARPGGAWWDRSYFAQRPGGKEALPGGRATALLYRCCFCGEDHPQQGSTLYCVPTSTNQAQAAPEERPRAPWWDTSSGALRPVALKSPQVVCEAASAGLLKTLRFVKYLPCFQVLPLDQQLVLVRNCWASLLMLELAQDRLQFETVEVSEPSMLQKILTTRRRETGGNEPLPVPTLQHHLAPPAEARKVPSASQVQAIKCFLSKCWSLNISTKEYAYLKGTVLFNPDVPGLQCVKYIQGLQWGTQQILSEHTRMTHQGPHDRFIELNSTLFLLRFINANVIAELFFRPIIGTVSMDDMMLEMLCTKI

HEK293 = test: cells; format: functional, cell-based; conditions: Homo sapiens
[9] = target: T4, Heat shock factor protein 1 (Mus musculus, UniProt P38532); test: HSF1 potentiators in luciferase reporter cells, confirmation, cell-based, NIH3T3, luminescence, dose retest (AID 435004); format: functional;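 note: stress induced by proteasome inhibitor MG132 added 30 min after compound; luciferase reporter driven by HSF1 response element in NIH3T3 cells; actives raise luminescence as potentiators of the MG132 stress response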
T4 sequence (P38532 whole entry): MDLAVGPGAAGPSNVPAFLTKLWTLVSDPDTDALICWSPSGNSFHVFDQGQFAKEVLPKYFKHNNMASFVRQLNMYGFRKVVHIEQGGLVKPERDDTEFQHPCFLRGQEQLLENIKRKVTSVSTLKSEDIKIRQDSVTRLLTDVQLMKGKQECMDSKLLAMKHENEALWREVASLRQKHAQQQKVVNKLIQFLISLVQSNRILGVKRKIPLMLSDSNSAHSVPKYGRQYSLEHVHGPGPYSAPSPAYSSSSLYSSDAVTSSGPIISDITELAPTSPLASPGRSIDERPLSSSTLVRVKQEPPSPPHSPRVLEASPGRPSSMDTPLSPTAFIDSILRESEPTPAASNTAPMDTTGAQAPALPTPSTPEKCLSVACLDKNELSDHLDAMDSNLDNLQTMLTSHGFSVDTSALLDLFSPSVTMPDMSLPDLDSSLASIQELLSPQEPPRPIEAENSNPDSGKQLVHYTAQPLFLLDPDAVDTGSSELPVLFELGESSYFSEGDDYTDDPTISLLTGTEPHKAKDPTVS

[10] = target: Ras and Rab interactor 1/Tyrosine-protein kinase ABL1 (Homo sapiens, UniProt P00519+Q13671); format: functional;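 note: biochemical TR-FRET dose-response test measuring inhibition of binding between Rin1 and Abl proteins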
[11] = target: T5, High affinity choline transporter 1 (Homo sapiens, UniProt Q9GZV3); test: CHT inhibitors, dose response, cell-based, 5-point CRC, membrane potential dye (AID 504840); format: functional
T5 sequence (Q9GZV3 whole entry): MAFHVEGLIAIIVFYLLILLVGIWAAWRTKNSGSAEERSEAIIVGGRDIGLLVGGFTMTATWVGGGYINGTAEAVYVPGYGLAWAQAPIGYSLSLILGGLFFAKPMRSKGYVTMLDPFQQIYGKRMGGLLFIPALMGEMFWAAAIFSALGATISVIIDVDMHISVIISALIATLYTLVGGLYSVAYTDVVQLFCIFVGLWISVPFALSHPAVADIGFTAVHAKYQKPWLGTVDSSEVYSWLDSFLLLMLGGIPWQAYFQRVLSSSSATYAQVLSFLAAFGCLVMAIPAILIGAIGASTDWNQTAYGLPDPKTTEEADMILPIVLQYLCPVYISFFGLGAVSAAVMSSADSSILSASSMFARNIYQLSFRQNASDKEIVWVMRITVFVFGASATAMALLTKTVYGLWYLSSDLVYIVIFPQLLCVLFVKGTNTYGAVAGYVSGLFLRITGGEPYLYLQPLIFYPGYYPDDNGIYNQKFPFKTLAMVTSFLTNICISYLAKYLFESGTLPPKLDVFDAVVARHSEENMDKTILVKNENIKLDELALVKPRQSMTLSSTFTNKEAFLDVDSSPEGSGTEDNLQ

[12] = target: T5, High affinity choline transporter 1; test: CHT inhibitors, dose response, cell-based, 10-point CRC, membrane potential dye (AID 588401); format: functional;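 note: membrane potential dye fluorescence of choline-evoked depolarization via CHT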

Voltage-dependent T-type calcium channel subunit alpha-1H, sequence (O95180 whole entry): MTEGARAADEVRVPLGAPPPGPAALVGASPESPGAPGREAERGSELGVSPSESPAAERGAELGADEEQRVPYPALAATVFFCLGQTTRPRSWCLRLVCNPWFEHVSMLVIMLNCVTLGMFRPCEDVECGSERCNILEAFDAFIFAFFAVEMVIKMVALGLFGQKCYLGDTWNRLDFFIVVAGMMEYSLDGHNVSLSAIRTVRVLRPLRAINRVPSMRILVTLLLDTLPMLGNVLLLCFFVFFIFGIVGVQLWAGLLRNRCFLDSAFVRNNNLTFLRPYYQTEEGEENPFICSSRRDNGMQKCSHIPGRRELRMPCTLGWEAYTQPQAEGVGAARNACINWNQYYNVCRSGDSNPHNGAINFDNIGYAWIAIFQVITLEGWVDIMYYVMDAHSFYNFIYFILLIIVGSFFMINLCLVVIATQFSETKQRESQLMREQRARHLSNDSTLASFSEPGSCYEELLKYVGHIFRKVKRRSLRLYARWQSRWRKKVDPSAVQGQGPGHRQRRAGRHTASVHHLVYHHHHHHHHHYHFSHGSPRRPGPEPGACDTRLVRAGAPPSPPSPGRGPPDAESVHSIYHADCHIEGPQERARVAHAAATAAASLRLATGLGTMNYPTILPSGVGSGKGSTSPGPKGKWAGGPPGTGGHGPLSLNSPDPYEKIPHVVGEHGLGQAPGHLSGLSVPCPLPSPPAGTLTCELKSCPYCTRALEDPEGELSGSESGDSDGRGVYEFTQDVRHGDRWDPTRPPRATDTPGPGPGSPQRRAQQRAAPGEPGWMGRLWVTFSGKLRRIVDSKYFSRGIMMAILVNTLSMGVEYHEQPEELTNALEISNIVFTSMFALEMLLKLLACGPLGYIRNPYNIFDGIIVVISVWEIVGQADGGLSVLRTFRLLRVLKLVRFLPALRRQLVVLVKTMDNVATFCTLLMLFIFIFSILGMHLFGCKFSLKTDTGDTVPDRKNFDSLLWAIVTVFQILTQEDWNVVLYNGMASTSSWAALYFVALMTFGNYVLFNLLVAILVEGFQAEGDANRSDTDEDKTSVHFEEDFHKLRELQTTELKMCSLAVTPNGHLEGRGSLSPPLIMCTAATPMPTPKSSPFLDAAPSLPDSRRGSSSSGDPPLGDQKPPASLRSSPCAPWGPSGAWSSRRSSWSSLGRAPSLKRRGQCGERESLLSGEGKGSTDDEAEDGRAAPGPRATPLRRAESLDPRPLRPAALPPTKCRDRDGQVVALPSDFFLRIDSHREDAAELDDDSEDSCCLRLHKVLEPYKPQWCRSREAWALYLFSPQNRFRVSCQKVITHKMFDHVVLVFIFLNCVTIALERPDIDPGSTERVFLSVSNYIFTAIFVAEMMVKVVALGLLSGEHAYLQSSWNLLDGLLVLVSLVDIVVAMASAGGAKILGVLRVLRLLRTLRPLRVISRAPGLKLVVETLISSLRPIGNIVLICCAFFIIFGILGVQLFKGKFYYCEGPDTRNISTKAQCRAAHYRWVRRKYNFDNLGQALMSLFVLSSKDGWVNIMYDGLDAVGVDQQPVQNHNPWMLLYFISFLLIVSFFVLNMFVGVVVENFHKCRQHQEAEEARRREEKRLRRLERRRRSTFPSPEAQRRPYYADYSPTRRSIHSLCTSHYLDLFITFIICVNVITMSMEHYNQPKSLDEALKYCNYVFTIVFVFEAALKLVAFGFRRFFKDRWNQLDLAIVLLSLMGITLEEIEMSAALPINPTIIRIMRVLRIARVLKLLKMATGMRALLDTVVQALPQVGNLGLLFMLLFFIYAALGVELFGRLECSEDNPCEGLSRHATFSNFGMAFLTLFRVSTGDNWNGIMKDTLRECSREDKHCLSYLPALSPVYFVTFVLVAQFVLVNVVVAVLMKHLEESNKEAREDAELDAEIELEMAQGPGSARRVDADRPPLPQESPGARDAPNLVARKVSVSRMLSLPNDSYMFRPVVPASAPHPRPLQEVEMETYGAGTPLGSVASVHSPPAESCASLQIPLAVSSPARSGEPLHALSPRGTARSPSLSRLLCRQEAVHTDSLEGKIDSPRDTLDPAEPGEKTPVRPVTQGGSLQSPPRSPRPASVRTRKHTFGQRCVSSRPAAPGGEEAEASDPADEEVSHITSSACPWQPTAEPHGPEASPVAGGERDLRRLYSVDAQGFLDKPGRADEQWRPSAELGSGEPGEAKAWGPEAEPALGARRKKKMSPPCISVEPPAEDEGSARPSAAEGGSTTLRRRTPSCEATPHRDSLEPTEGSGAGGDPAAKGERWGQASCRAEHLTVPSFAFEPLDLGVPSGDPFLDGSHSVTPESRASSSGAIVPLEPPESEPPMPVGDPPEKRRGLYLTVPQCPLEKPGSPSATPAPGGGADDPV

With `Cc1csc(NC(=O)Cc2c[nH]c3ccccc23)n1` the EC50 [1] was 9.34 µM (active), the IC50 (Coagulation factor XII) was > 50 µM (inactive) and the AC50 (HeLa) was 320 µM (active). The AC50 (Cytochrome P450 2D6) was 22.4 µM (inconclusive).
In the case of `COC(=O)c1ccc(N2NC(=O)/C(=C/c3cc(OC)c(O)c(OC)c3)C2=O)cc1`, the IC50 [2] is reported as 18.5 µM (active), the IC50 (Prothrombin) is reported as 27 µM (active) and the IC50 [3] is reported as 81.6 µM (active).
In the case of `COc1cc(-c2nnc(S)n2C(C)c2ccccc2)cc(OC)c1OC` (configuration not stated), the AC50 [4] is reported as 5.84 µM (active).
For `O=C(O)c1cc(-c2cc(F)c(Cl)cc2Cl)n[nH]1`, the IC50 [5] was 1.09 µM (active), the IC50 [6] was > 100 µM (inactive) and the IC50 [7] was > 100 µM (not active).
In the case of `O=C(Cn1nnc(-c2ccccc2)n1)OCc1csc(-c2ccccc2)n1`, the IC50 (Coagulation factor XII) is reported as > 50 µM (inactive).
With `C#CCOc1nc(Nc2cccc([N+](=O)[O-])c2)nc(OCC#C)n1` the IC50 (Coagulation factor XII) was > 50 µM (inactive) and the IC50 (H9c2) was > 79 µM (inactive).
In the case of `Cc1ccccc1-n1nc(CSc2nc3ccccc3[nH]2)c(-c2ccccc2)c1N`, the IC50 [6] is reported as > 100 µM (inactive).
With `O=C(COC(=O)c1[nH]nc2ccccc12)Nc1ccccc1` the IC50 [8] was > 67.5 µM (inactive) and the IC50 (HEK293) was > 67.5 µM (inactive).
In the case of `O=c1[nH]n(CC2COC3(CCCCC3)O2)c(=O)c2ccccc12` (configuration not stated), the EC50 [9] is reported as 79 µM (active), the IC50 [10] is reported as 12.5 µM (inactive) and the IC50 (H9c2) is reported as > 79 µM (inactive).
For `CCSc1nnc(NC(=O)C(C)(C(F)(F)F)C(F)(F)F)s1`, the IC50 [11] was 3.47 µM (active) and the IC50 [12] was 2.82 µM (active).
